The target in one assay is T1, H. sapiens SLC2A9 variant 2 (GLUT9B) (Homo sapiens, UniProt Q9NRM0).
T1 sequence (Q9NRM0 1-511 isoform Q9NRM0-2): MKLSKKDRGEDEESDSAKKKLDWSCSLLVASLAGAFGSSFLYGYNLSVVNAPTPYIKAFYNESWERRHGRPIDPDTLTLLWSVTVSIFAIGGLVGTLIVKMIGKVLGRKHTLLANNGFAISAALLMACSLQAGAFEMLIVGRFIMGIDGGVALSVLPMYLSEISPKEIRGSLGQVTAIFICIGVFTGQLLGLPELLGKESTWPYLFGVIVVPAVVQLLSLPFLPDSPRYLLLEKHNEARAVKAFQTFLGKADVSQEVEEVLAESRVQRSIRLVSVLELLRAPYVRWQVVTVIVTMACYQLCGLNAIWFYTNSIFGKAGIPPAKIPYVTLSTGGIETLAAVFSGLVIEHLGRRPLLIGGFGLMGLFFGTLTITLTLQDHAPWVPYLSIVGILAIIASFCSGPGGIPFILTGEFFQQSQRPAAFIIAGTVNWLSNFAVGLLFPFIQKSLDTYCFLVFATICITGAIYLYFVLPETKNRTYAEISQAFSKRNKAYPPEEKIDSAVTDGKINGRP
The assay is described as follows: GLUT9 functional assay: uric acid uptake in HEK293T cells, allantoin formation by MS/MS as proxy of GLUT9B inhibition. Particulars: 15 minute assay; HEK293T cells stably expressing GLUT9B and transiently A. oryzae uricase; uric acid 0.3 mM, 37° C.; read-out: 15 min IC50. It is filed as cell-based. The protocol: Uric acid stocks (9 mM, Millipore-Sigma, U0881) were generated in 125 mM choline chloride (Millipore-Sigma, C7017) and the concentration was determined at 293 nm using a molar extinction coefficient of 9600 M- ^1 cm- ^1) after collecting the absorbance spectra from 220-350 nm. Allantoin stocks (12 mM Toronto Research Chemicals, A540500) were generated in LCMS grade water (Thermo Scientific, 51140). The concentration of allantoin was determined by qNMR (Michigan State University). HEK293T cells were purchased from ATCC (HEK 293T/17 SF). Hanks buffered saline salts (HBSS) was purchased from Millipore-Sigma (H6648-1L).
SLC2A9 variant 2 was assayed in sodium gluconate buffer was composed of 125 mM sodium gluconate (TCI Chemicals, G0041-500G), 4.8 mM potassium gluconate (TCI Chemicals, G0040-500G), 1.2 mM calcium gluconate (TCI Chemicals, G0037-500G), 1.2 mM potassium phosphate (pH 7.4, Millipore-Sigma, 17835), 1.2 mM MgSO4, Millipore-Sigma, M2773-500G), 25 mM HEPES pH 7.3, (Millipore-Sigma, 54457). The final pH of the buffer was 7.4. Urate 1 was assayed in the same buffer save the pH was made to be 5.5 using 25 mM MES (pH 5.5) buffer vs 25 mM HEPES (pH 7.3) buffer.
Human untagged clone for (untagged)-human solute carrier family 2 member 9 (SLC2A9), transcript variant (SLC2A9/NM_001001290, FIG. 1 and FIG. 2; SEQ ID NOS: 3 and 4) was purchased from Origene (Cat #SC319239). SLC2A9 variant 2 (GLUT9B) gene was amplified by PCR using the following primer to allow for the introduction of EcoR1 and Not1 sites using the primers below.
HEK293T clonal stable cell lines containing the SLC2A9 variant 2 construct in the bicistronic pIRESpuro vector were generated using Viafect™ (Promega E4981) as per the manufactures instructions and puromycin selection (5 μg×mL^−1).
Uric acid uptake was measured in HEK293T cells stably expressing H. sapiens SLC2A9 variant 2 (GLUT9B) and transiently expressing A. oryzae uricase. Thus, decreased allantoin formation was used as a proxy of GLUT9B inhibition. Briefly, clonal cells were plated (53,000 cells/cm^2) in DMEM with 10% FBS. Twenty-four hours later, A. oryzae uricase was transfected, and assay conducted 3 days later across a 12-point curve in buffer (in mM: 125 sodium gluconate, 4.8 potassium gluconate, 1.2 calcium gluconate, 1.2 potassium phosphate, 1.2 magnesium sulfate4, 25 HEPES; pH 7.4) with uric acid at the GLUT9B Km (0.3 mM) for 15 min or for 60 min, at 37° C. Following wash (Hanks, 37° C.), plates were sealed, incubated (5 min, RT) and cells freeze-thawed prior to lysing in water and shaking (30 min RT). Lysates were filtered through PVDF and subjected to MSMS using a 10 mM ammonium acetate-based mobile phase on a porous graphitic carbon column. Allantoin was detected in positive ion mode. Desired analyte concentrations were quantitated by integrating the area under the curve followed by a log-logistic regression model and data compared to a standard curve prepared in a matching HEK293T biological matrix.
Mass spectrometry measurement of allantoin was completed using an Agilent RapidFire 300 coupled to a Sciex API 4000 mass spectrometer. The stationary phase was an Agilent cartridge D (hypercarb). Mobile phase A was 10 mM ammonium acetate. Mobile phase B was 5 mM ammonium acetate, 25% acetonitrile, 25% acetone. Allantoin was detected in positive ion mode with the following compound ID settings: Q1 159, Q3 115.8, DP 57, CE 12.5 Dwell 100 ms. The source settings were CAD 10, CUR 20, GS1 50, GS250 IS/NC: 5000, TEM 650, EP 10, CXP 10 where Q1 and Q3 resolution were set to low.
Data was quantitated using Area under the curve integration was performed with the RapidFire™ Integrator (Agilent Technologies) for the desired analytes. Quantitation was completed using in a using a log-logistic regression model using allantoin in matching HEK293T biological matrix.
Take `CCCCc1cnc(-c2ccc(OC)cc2)c(N2CCN(CC(=O)O)CC2)n1` [Compound 1, 2-(4-(6-Butyl-3-(4-Methoxyphenyl)Pyrazin-2-yl)Piperazin-1-yl)Acetic Acid]: the IC50 (in general, the midpoint of a concentration-inhibition curve) is greater than 2000 nM.

As for `CCCCc1cnc(-c2ccc(F)c(OC)c2)c(N2CCC(C(=O)O)CC2)n1` [Compound 2, 1-(6-Butyl-3-(4-Fluoro-3-Methoxyphenyl)Pyrazin-2-yl)Piperidine-4-carboxylic acid], the IC50 is greater than 2000 nM.

For the molecule `CCCCc1cnc(-c2ccc(OC)cc2)c(N2CCC(C(=O)O)CC2)n1` [Compound 3, 1-(6-Butyl-3-(4-Methoxyphenyl)Pyrazin-2-yl)Piperidine-4-Carboxylic Acid], the IC50 is less than 500 nM.

For the molecule `CCCCc1cnc(-c2ccc(OC)cc2)c(N2CC3C(C2)C3C(=O)O)n1` (stereo not shown) [Compound 4, 3-(6-Butyl-3-(4-Methoxyphenyl)Pyrazin-2-yl)-3-Azabicyclo[3.1.0]Hexane-6-carboxylic acid], the half-maximal inhibitory concentration (IC50) is less than 500 nM.

Consider `CCCCc1cnc(-c2ccc3[nH]ccc3c2)c(N2CCC(C(=O)O)CC2)n1` [Compound 5, 1-(6-Butyl-3-(1H-Indol-5-yl)Pyrazin-2-yl)Piperidine-4-Carboxylic Acid], for which the IC50 was greater than 2000 nM.

For the molecule `CCCCc1cnc(-c2ccc(OCCN(C)C)cc2)c(N2CCC(C(=O)O)CC2)n1` [Compound 6, 1-(6-Butyl-3-(4-(2-(Dimethylamino)Ethoxy)Phenyl)Pyrazin-2-yl)piperidine-4-carboxylic acid], the IC50 is greater than 2000 nM.

`CCCCc1cnc(-c2ccc(S(C)(=O)=O)cc2)c(N2CCC(C(=O)O)CC2)n1` [Compound 7, 1-(6-Butyl-3-(4-(Methylsulfonyl)Phenyl)Pyrazin-2-yl)Piperidine-4-carboxylic acid]: the IC50 lay within 500 to 2000 nM.

With `CCCCc1cnc(-c2ccc(OC)cc2)c(N2CCC(S(C)(=O)=O)CC2)n1` [Compound 8, 5-Butyl-2-(4-Methoxyphenyl)-3-(4-(Methylsulfonyl)Piperidin-1-yl)pyrazine], the IC50 was greater than 2000 nM.

Take `CCCCc1cnc(-c2cc(F)c3occc3c2)c(N2CCC(C(=O)O)CC2)n1` [Compound 9, 1-(6-Butyl-3-(7-Fluorobenzofuran-5-yl)Pyrazin-2-yl)Piperidine-4-carboxylic acid]: the IC50 was less than 500 nM.

In the case of `CCCCc1cnc(-c2ccc(OC)cc2)c(N2CCC(F)(C(=O)O)CC2)n1` [Compound 10, 1-(6-Butyl-3-(4-Methoxyphenyl)Pyrazin-2-yl)-4-Fluoropiperidine-4-carboxylic acid], the IC50 was less than 500 nM.

With `CCCCc1cnc(-c2ccc(OC)cc2)c(N2CCC(C(=O)NS(C)(=O)=O)CC2)n1` [Compound 11, 1-(6-Butyl-3-(4-Methoxyphenyl)Pyrazin-2-yl)-N-(Methylsulfonyl)Piperidine-4-carboxamide], the half-maximal inhibitory concentration (IC50) was less than 500 nM.

Regarding `CCCCc1cnc(-c2ccc(OC)cc2)c(N2CCC(C(=O)O)C2)n1` (stereo not shown) [Compound 12, 1-(6-Butyl-3-(4-Methoxyphenyl)Pyrazin-2-yl)Pyrrolidine-3-Carboxylic acid], the IC50 was greater than 2000 nM.

Turning to `CCCCc1cnc(-c2ccc(OCCOC)cc2)c(N2CCC(C(=O)O)CC2)n1` [Compound 13, 1-(6-Butyl-3-(4-(2-Methoxyethoxy)Phenyl)Pyrazin-2-yl)Piperidine-4-carboxylic acid], the IC50 was less than 500 nM.

Consider `CCCCc1cnc(-c2ccc(OC)cc2)c(N2CCC(C)(C(=O)O)CC2)n1` [Compound 14, 1-(6-Butyl-3-(4-Methoxyphenyl)Pyrazin-2-yl)-4-Methylpiperidine-4-carboxylic acid], for which the IC50 was less than 500 nM.

With `CCCCc1cnc(-c2ccc(OC)cc2)c(N2CCC(CC(=O)O)CC2)n1` [Compound 15, 2-(1-(6-Butyl-3-(4-Methoxyphenyl)Pyrazin-2-yl)Piperidin-4-yl)Acetic acid], the IC50 was less than 500 nM.

For `CCCCc1cnc(-c2ccc(OC)cc2)c(N2CCC(c3nn[nH]n3)CC2)n1` [Compound 16, 3-(4-(2H-Tetrazol-5-yl)Piperidin-1-yl)-5-Butyl-2-(4-methoxyphenyl)pyrazine], the IC50 is less than 500 nM.

Consider `CCCCc1cnc(-c2ccc3cc[nH]c3c2)c(N2CCC(C(=O)O)CC2)n1` [Compound 17, 1-(6-Butyl-3-(1H-Indol-6-yl)Pyrazin-2-yl)Piperidine-4-Carboxylic Acid], for which the IC50 lay within 500 to 2000 nM.

For the molecule `CCCCc1cnc(-c2ccc(OC)cc2)c(-c2ccc(C(=O)O)nc2)c1` [Compound 18, 5′-butyl-2′-(4-methoxyphenyl)-[3,3′-bipyridine]-6-carboxylic acid], the IC50 is greater than 2000 nM.

With `CCCCc1cnc(-c2ccc(OC)cc2)c(-c2csc(C(=O)O)c2)c1` [Compound 19, 4-(5-butyl-2-(4-methoxyphenyl)pyridin-3-yl)thiophene-2-carboxylic acid], the IC50 lay in the range of 500 to 2000 nM.

`CCCCc1cnc(-c2ccc(OC)cc2)c(-c2csc(C(=O)O)n2)c1` [Compound 20, 4-(5-butyl-2-(4-methoxyphenyl)pyridin-3-yl)thiazole-2-carboxylic acid]: the IC50 is greater than 2000 nM.

As for `CCCCc1cnc(-c2ccc(OC)cc2)c(-c2c[nH]c(C(=O)O)c2)c1` [Compound 21, 4-(5-butyl-2-(4-methoxyphenyl)pyridin-3-yl)-1H-pyrrole-2-carboxylic acid], the IC50 is greater than 2000 nM.

Take `CCCCc1cnc(-c2ccc(OC)cc2)c(-c2coc(C(=O)O)c2)c1` [Compound 22, 4-(5-butyl-2-(4-methoxyphenyl)pyridin-3-yl)furan-2-carboxylic acid]: the IC50 is greater than 2000 nM.

Staying with this assay, now noted: 60 minute assay; HEK293T cells stably expressing GLUT9B and transiently A. oryzae uricase; uric acid 0.3 mM, 37° C.; read-out: 60 min IC50.
As to `COCCCc1cnc(-c2ccc3occc3c2)c(N2CCC(C(=O)O)CC2C)n1` (racemic) [Compound 180, 1-(3-(benzofuran-5-yl)-6-(3-Methoxypropyl)Pyrazin-2-yl)-2-methylpiperidine-4-carboxylic acid], the IC50 is less than 500 nM.

In the case of `COCCCc1cnc(-c2cc(F)c3occc3c2)c(N2CC[C@@H](C(=O)O)C[C@@H]2C)n1` (single isomer, unassigned) [Compound 183], the IC50 is less than 500 nM.

Consider `COCCCc1cnc(-c2cc(F)c3occc3c2)c(N2CC[C@H](C(=O)O)C[C@@H]2C)n1` (single isomer, unassigned) [Compound 229], for which the IC50 is less than 500 nM.

With `COCCCc1cnc(-c2ccc3occc3c2)c(N2CCC[C@H](C(=O)O)C2)n1` (single isomer, unassigned) [Compound 235], the IC50 is greater than 2000 nM.

`COCCCc1cnc(-c2ccc3occc3c2)c(N2CCC[C@@H](C(=O)O)C2)n1` (single isomer, unassigned) [Compound 236]: the IC50 was 500 to 2000 nM.

For `CCCCc1cnc(-c2ccc(OC)cc2)c(N2CCC(C(=O)O)CC2)n1` [Compound 3, 1-(6-Butyl-3-(4-Methoxyphenyl)Pyrazin-2-yl)Piperidine-4-Carboxylic Acid], the concentration for half-maximal inhibition (IC50) is less than 500 nM.

The record behind these values is patent US20250179032A1, “HETEROCYCLIC INHIBITORS OF GLUT9 FOR TREATMENT OF DISEASE” (HORIZON THERAPEUTICS IRELAND DAC, priority 2022, published 2025).
